Results: PMC4155405 (Nature communications, 2014)
Like-named read-outs stand apart in the source and are kept apart here.

Legend:
[1] = test system: Wuhan95 (H3N2) PB1-V43I virus; assay type: cell-based, influenza A virus A/Wuhan/359/95 (H3N2)
[2] = test system: Wuhan95 (H3N2) wild-type virus; assay type: cell-based, influenza A virus A/Wuhan/359/95 (H3N2)
[3] = test system: recombinant virus Wuhan95 (H3N2); assay type: cell-based, influenza A virus A/Wuhan/359/95 (H3N2)
[4] = test system: recombinant Wuhan95 (H3N2) PB1-V43I virus; assay type: cell-based, influenza A virus A/Wuhan/359/95 (H3N2)
[5] = in vitro; conditions: dog

Structure (SMILES) | mutational frequency in the HA gene [1] | fold higher mutational frequency of wild-type virus than PB1-V43I virus [2] [fold] | mutational frequency in the HA gene [2] | genomic mutation frequency [3] | fold higher virus titre of PB1-V43I virus compared to wild-type recombinant Wuhan95 virus [4] [fold] | EC50 ([4]; read-out: EC50 (ribavirin, virus titre in MDCK cells)) [µM] | CC50 [5] [µM] | fold increase in EC50, PB1-V43I mutant versus wild-type H3N2 virus [4] [fold] | EC50 ([4]; read-out: EC50 (favipiravir, virus titre in MDCK cells)) [µM]
NC(=O)c1ncn([C@@H]2O[C@H](CO)[C@@H](O)[C@H]2O)n1 [ribavirin, 1-[(2R,3R,4S,5R)-3,4-dihydroxy-5-(hydroxymethyl)oxolan-2-yl]-1H-1,2,4-triazole-3-carboxamide] | 4.08 mutations per 10^4 nucleotides | 1.36 | 5.53 mutations per 10^4 nucleotides | 15.74 per 10^4 nucleotide sequenced | 10.8 | 73.5 | 352 ± 0.04 |  | 
Nc1nc2c(ncn2[C@@H]2O[C@H](CO)[C@@H](O)[C@H]2O)c(=O)[nH]1 [guanosine] |  |  |  |  |  |  | 122 ± 0.11 |  | 
NC(=O)c1nc(F)c[nH]c1=O [favipiravir] |  |  |  |  |  |  |  | 2.24 | 24.6
